Assay results reported in ChEMBL document CHEMBL2440071, “Antimycobacterial and herbicidal activity of ring-substituted 1-hydroxynaphthalene-2-carboxanilides” (Bioorg Med Chem, 2013).
In brackets after ≈: the same amount, converted by molar mass. Activity calls are given as the source filed them. The calls are words filed in the database; no cut-off is given here.

What was measured:
[1] = tested on: Mycolicibacterium smegmatis; test: Antimycobacterial activity against Mycobacterium smegmatis ATCC 700084 after 3 days by two-fold serial dilution method; type: functional; details: ATCC 700084, 72 h
[2] = Lipophilicity, log K of the compound by RP-HPLC analysis; type: physicochemical
Mycobacterium kansasii = test: Antimycobacterial activity against Mycobacterium kansasii DSM 44162 after 7 days by two-fold serial dilution method; type: functional; details: DSM 44162, 168 h
[3] = Cytotoxicity against human THP1 cells after 24 hrs by lactate dehydrogenase assay; type: cell-based; details: THP-1 cells, read-out: LD50
Spinacia oleracea [4] = test: Inhibition of PS2 in spinach chloroplasts assessed as photoreduction of DCPIP measured remaining activity incubated for 2 mins in dark condition prior to testing by spectrophotometry in presence of diphenylcarbazide relative to control; values are per cent of control; set-up: concentration or dose not given beside the values
[5] = Inhibition of PS2 in spinach chloroplasts assessed as photoreduction of DCPIP incubated for 2 mins in dark condition prior to testing by spectrophotometry; set-up: species or system Spinacia oleracea
Spinacia oleracea [6] = test: Inhibition of PS2 in spinach chloroplasts assessed as photoreduction of DCPIP measured remaining activity incubated for 2 mins in dark condition prior to testing by spectrophotometry relative to control; values are per cent of control; set-up: concentration or dose not given beside the values
Mycobacterium marinum [7] = test: Antimycobacterial activity against Mycobacterium marinum CAMP 5644 after 21 days by two-fold serial dilution method; type: functional; details: CAMP 5644, 504 h
Mycobacterium marinum [8] = test: Ratio of isoniazid MIC to compound MIC for Mycobacterium marinum CAMP 5644; type: functional
[9] = tested on: Mycolicibacterium smegmatis; test: Ratio of isoniazid MIC to compound MIC for Mycobacterium smegmatis ATCC 700084; type: functional
Spinacia oleracea [10] = test: Inhibition of PS2 in spinach chloroplasts assessed as reduction in chlorophyll a fluorescence emission at 0.1 to 1.2 mmol/L by fluorescence spectrophotometry

Structure (SMILES)	MIC [1]	log K [2]	MIC (Mycobacterium kansasii)	CC50 at 24 h [3]	residual activity (Spinacia oleracea [4])	IC50 [5]	residual activity (Spinacia oleracea [6])	MIC (Mycobacterium marinum [7])	Ratio (Mycobacterium marinum [8])	Ratio [9]	inhibition (Spinacia oleracea [10])
O=C(Nc1ccccc1)c1ccc2ccccc2c1O	243 µM (≈ 64 µg/mL)	1.2302	15.2 µM (≈ 4 µg/mL)	> 20 µM	95%	31.3 µM	10%	60.7 µM (≈ 16 µg/mL)	–	–	–
O=C(Nc1cccc([N+](=O)[O-])c1)c1ccc2ccccc2c1O	> 830 µM	0.6609	> 830 µM	–	95%	19.9 µM	10%	> 830 µM	–	–	–
O=C(Nc1ccccc1Br)c1ccc2ccccc2c1O	> 748 µM	0.9234	> 748 µM	–	95%	61.9 µM	10%	> 748 µM	–	–	–
O=C(Nc1ccccc1F)c1ccc2ccccc2c1O	228 µM (≈ 64.1 µg/mL)	0.8296	> 910 µM	–	95%	57 µM	10%	56.8 µM (≈ 16 µg/mL)	–	–	–
COc1cccc(NC(=O)c2ccc3ccccc3c2O)c1	> 873 µM	1.2849	> 873 µM	–	95%	23.5 µM	10%	54.5 µM (≈ 16 µg/mL)	–	–	–
O=C(Nc1ccccc1Cl)c1ccc2ccccc2c1O	860 µM (≈ 256 µg/mL)	0.8764	860 µM (≈ 256 µg/mL)	–	95%	29.4 µM	10%	107 µM (≈ 31.9 µg/mL)	–	–	–
NNC(=O)c1ccncc1 [ISONIAZID]	117 µM (≈ 16 µg/mL)	–	–	–	–	–	–	467 µM (≈ 64 µg/mL)	–	–	–
COc1ccccc1NC(=O)c1ccc2ccccc2c1O	> 873 µM	1.4716	> 873 µM	–	95%	200 µM	10%	> 873 µM	–	–	–
O=C(Nc1ccc(F)cc1)c1ccc2ccccc2c1O	> 910 µM	1.0533	14.2 µM (≈ 3.99 µg/mL)	> 10 µM	95%	20.3 µM	10%	114 µM (≈ 32.1 µg/mL)	–	–	–
Cc1cccc(NC(=O)c2ccc3ccccc3c2O)c1	57.7 µM (≈ 16 µg/mL)	1.4254	28.8 µM (≈ 7.99 µg/mL)	> 20 µM	95%	20 µM	10%	28.8 µM (≈ 7.99 µg/mL)	16	2.5	–
COc1ccc(NC(=O)c2ccc3ccccc3c2O)cc1	> 873 µM	1.1882	> 873 µM	–	95%	79.5 µM	10%	> 873 µM	–	–	–
O=C(Nc1cccc(Br)c1)c1ccc2ccccc2c1O	> 748 µM	1.1784	> 748 µM	> 20 µM	95%	8.2 µM	10%	> 748 µM	–	–	–
Cc1ccc(NC(=O)c2ccc3ccccc3c2O)cc1	923 µM (≈ 256 µg/mL)	1.4008	57.7 µM (≈ 16 µg/mL)	–	95%	28.7 µM	10%	115 µM (≈ 31.9 µg/mL)	–	–	–
CN(C)C(=O)Nc1ccc(Cl)c(Cl)c1 [DCMU]	–	–	–	–	–	1.9 µM	–	–	–	–	–
CC[C@@]1(O)C(=O)OCc2c1cc1n(c2=O)Cc2cc3ccccc3nc2-1 [CAMPTOTHECIN]	–	–	–	0.16 µM	–	–	–	–	–	–	–
O=C(Nc1cccc(C(F)(F)F)c1)c1ccc2ccccc2c1O	> 748 µM	1.127	> 748 µM	1 µM	95%	5.3 µM	10%	46.7 µM (≈ 15.5 µg/mL)	–	–	–
O=C(Nc1cccc(F)c1)c1ccc2ccccc2c1O	910 µM (≈ 256 µg/mL)	1.0763	28.4 µM (≈ 7.99 µg/mL)	> 10 µM	95%	15.6 µM	10%	28.4 µM (≈ 7.99 µg/mL)	16	–	–
O=C(Nc1ccc(Br)cc1)c1ccc2ccccc2c1O	46.7 µM (≈ 16 µg/mL)	1.1224	23.3 µM (≈ 7.97 µg/mL)	> 20 µM	95%	9.6 µM	10%	46.7 µM (≈ 16 µg/mL)	–	2.5	–
O=C(Nc1ccccc1C(F)(F)F)c1ccc2ccccc2c1O	> 773 µM	0.6899	> 773 µM	> 20 µM	95%	126 µM	10%	96.6 µM (≈ 32 µg/mL)	–	–	Active
Cc1ccccc1NC(=O)c1ccc2ccccc2c1O	231 µM (≈ 64.1 µg/mL)	1.1176	115 µM (≈ 31.9 µg/mL)	> 20 µM	95%	62.8 µM	10%	28.8 µM (≈ 7.99 µg/mL)	16	–	–
O=C(Nc1ccc(C(F)(F)F)cc1)c1ccc2ccccc2c1O	> 748 µM	1.1158	23.3 µM (≈ 7.72 µg/mL)	0.6 µM	95%	36.5 µM	10%	187 µM (≈ 62 µg/mL)	–	–	–
O=C(Nc1cccc(Cl)c1)c1ccc2ccccc2c1O	> 860 µM	1.1615	26.8 µM (≈ 7.98 µg/mL)	> 20 µM	95%	7.9 µM	10%	107 µM (≈ 31.9 µg/mL)	–	–	–
O=C(Nc1ccccc1[N+](=O)[O-])c1ccc2ccccc2c1O	> 830 µM	0.5014	> 830 µM	–	95%	–	10%	> 830 µM	–	–	–
O=C(Nc1ccc([N+](=O)[O-])cc1)c1ccc2ccccc2c1O	> 830 µM	0.5298	51.9 µM (≈ 16 µg/mL)	–	95%	24 µM	10%	104 µM (≈ 32.1 µg/mL)	–	–	–
O=C(Nc1ccc(Cl)cc1)c1ccc2ccccc2c1O	215 µM (≈ 64 µg/mL)	1.1314	26.8 µM (≈ 7.98 µg/mL)	> 20 µM	95%	10.8 µM	10%	215 µM (≈ 64 µg/mL)	–	–	–
